Patent publication US20020051799A1, “Glucosylated hydroxystilbene compounds for treating skin conditions” (priority 2000, published 2002)

Experiments:
[1] = glucosylated form compared with the non glucosylated form; cited from earlier work
[2] = test system: tyrosinase; assay: Spectrophotometric tyrosinase assay (255 nm); assay type: biochemical
Protocol: A glucosylated resveratrol (4′,5-dihydroxystilbene-3-O-beta-D-glucoside) (APIN Chemicals N17555p, 29 D Milton Park, Abingdon, Oxon, United Kingdom) was incubated in the presence of an extract of stratum corneum or of a homogenate of hair follicles that had been removed by plucking. Under precise experimental conditions, the affinity of the resveratrol for tyrosinase was higher than for glucosylated resveratrol. This property was advantageously employed to measure the resveratrol liberated in the presence of tyrinosase, determined at 255 nm. This method was adapted from the method described by A. A. Calderon: “A Spectrophotometric Assay for Quantitative Analysis of the Oxidation of 4-hydroxystilbene by Peroxidase-H2O2 Systems: J. of Biochem. and Biophys. (1990) Methods 20: 171-180.
A 200 μl aliquot was removed and 10 μl of tyronisase was added.
Two independent measurements were carried out by determining the optical density at 255 nm over 10 minutes and calculating the slope of the graph (60 to 300 seconds).
Under the same conditions, a calibration curve was produced using resveratrol (1; 2.5; 5; 7.5 and 10 μl) in a volume adjusted to […].

affinity for tyrosinase ([2]; compared with glucosylated resveratrol, under precise experimental conditions) | concentrations at which resveratrol action was demonstrated ([2]; in vitro tests) | Structure (SMILES) | antioxidant activity [1]
 |  | OC[C@H]1O[C@@H](Oc2cc(O)cc(/C=C/c3ccc(O)cc3)c2)[C@H](O)[C@@H](O)[C@@H]1O [glucosylated resveratrol, 4′,5-dihydroxystilbene-3-O-beta-D-glucoside] | far inferior
higher | less than 10 μm | Oc1ccc(C=Cc2cc(O)cc(O)c2)cc1 [resveratrol, 3,4′,5-trihydroxystilbene] | 
